Experimental data from publication PMC12457078, “Inhibition of soluble epoxide hydrolase in endotoxin induced pig lung injury” (Frontiers in Pharmacology, 2025).
“And” between values parts separate entries of the source, which are not always exact repeats. Equal values may be shown once.

Tested on: endotoxin-induced lung injury
Experiment: porcine model of LPS-induced acute lung injury: haemodynamics, ventilation/mechanics, blood gases, P/F, chemistry, temperature, survival
Assay type: in vivo, pig
Design: AF baseline / AF end / Ven. sat end: unit not given here
Method: The animals were bred for purpose at the Forslunda Agricultural School in Umeå, Sweden. The pigs were pairwise kept in 8 m^2 pens before start of experiments and were fed twice daily with a commercially available pig diet without antimicrobials, and with free access to water. Photoperiods were 12:12 h light:dark. Room temperature in their stall was 20 °C ± 1 °C.
After overnight fasting, but with free access to water and hay, animals were pre-medicated with ketamine (Ketaminol vet® 100 mg/mL; Intervet International B.V, Boxmeer, Netherlands), xylazine (Rompun® vet 20 mg/mL; Bayer Animal Health, Copenhagen, Denmark) and atropine (Atropin Mylan 0.5 mg/mL; Mylan AB, Stockholm, Sweden) by intramuscular injection before an auricular vein was cannulated. Anesthesia was induced with ketamine and midazolam (Midazolam Hameln 5 mg/mL, Hameln Pharmaceuticals, Hameln, Germany) and maintained with ketamine, midazolam, xylazine and fentanyl (Fentanyl 0.05 mg/mL, B. Braun Medical AB, Danderyd, Sweden). The animals were orotracheally intubated and ventilated with tidal volume 8–9 mL/kg, PEEP 8 cmH2O, and a respiratory rate set to achieve an end-tidal carbon dioxide of 5–5.5 kPa.
One animal served as a pharmacokinetic pilot, with arterial and venous catheters placed in a cut-down in the neck. The remaining 21 animals were used for the randomized study (Figure 1). After intubation and start of mechanical ventilation, a second auricular vein cannula was placed and infusion of either AEPU or placebo according to randomization was started. After 2 h of infusion of AEPU or placebo, an infusion of LPS was started. A bolus of 0.1 mg/kg was administered during 30 min after which the infusion rate was adjusted to 0.01 mg/kg/h. During the time between start of AEPU or placebo and LPS infusion, neck dissection was performed, exposing the v jugularis externa and carotid artery. A pulmonary artery introducer and an arterial cannula were placed in vein and artery respectively, and a pulmonary artery catheter introduced through the introducer and the tip placed in the correct position in the pulmonary artery placement guided by continuous invasive pressure monitoring or, when difficult, assisted by fluoroscopy. All surgical procedures were performed under sterile conditions.
AEPU was synthesized according to Kim et al. ([Kim et al., 2007]), delivered in 60 mg vials and dissolved in 30 mL pure ethanol as a co-solvent, of which either 20 mL was added to 980 mL of sodium chloride 9 mg/mL or 8 mL–392 mL sodium chloride, creating a solution of 0.04 mg/mL AEPU and 2% ethanol. The placebo infusion was prepared by adding either 20 mL of pure ethanol to 980 mL of sodium chloride 9 mg/mL or 8 mL of pure ethanol to 392 mL sodium chloride, creating a 2% ethanol solution. Each animal received an infusion of either 0.1 mg/kg/h AEPU or the corresponding volume of placebo solution.
A total of 200 mg of prefabricated lipopolysaccharides (LPS, Escherichia coli serotype 0,111:B4, Sigma-Aldrich (Product no L4130), St. Louis, MO, United States of America) was dissolved in 40 mL of sterile water, carefully mixed and filtered, creating a solution of 5 mg/mL. This preparation was stored frozen (−20 °C) in 1 mL partitions. For each animal, 2 mL of the thawed solution was mixed and diluted in 18 mL of sodium chloride, finally creating a 0.5 mg/mL LPS solution for infusion.
All animals were monitored with pulse oximetry, heart rate, ECG, systemic arterial blood pressure (ABP), pulmonary arterial pressure (PAP), central venous pressure (CVP) temperature, tidal volumes, respiratory rate and end tidal carbon dioxide. At baseline, and at 3 h, 6 h and at the end of the experiment, pulmonary capillary wedge pressure (PCWP) was measured together with arterial and venous blood gas analyses, as well as cardiac output calculations. […]

[1] = individual animals, 3 h, listed as sEH-i 950
[2] = individual animals, 6 h, listed as sEH-i 950
[3] = individual animals, end, listed as sEH-i 950
[4] = last available measurement, AEPU group

With `CCOCCOCCOCCCCCNC(=O)NC12CC3CC(CC(C3)C1)C2` [Compound 950] as the compound, how does the “PaO2 3 h” value [1] read?
Its value is 22.1 kPa and 20.1 kPa and 17 kPa and 22.7 kPa and 19.3 kPa and 16.7 kPa and 9 kPa and 8.1 kPa and 7.3 kPa and 14.7 kPa.

What about the “SBP 3 h” value [1] of the same compound?
The value was 124 mmHg and 122 mmHg and 103 mmHg and 102 mmHg and 110 mmHg and 101 mmHg and 162 mmHg and 123 mmHg and 78 mmHg and 116 mmHg.

What about the “SPAP 3 h” value [1] of the same compound?
Its value is 82 mmHg and 46 mmHg and 45 mmHg and 53 mmHg and 66 mmHg and 58 mmHg.

What about the “Ven. sat 3 h” value [1] of the same compound?
Its value is 69 and 79 and 74 and 62 and 58 and 49 and 34.

What about the “CO 6 h” value [2] of the same compound?
The value was 3.2 L/min and 3.3 L/min and 3.1 L/min and 1.7 L/min and 2.4 L/min.

What about the “CVP 6 h” value [2] of the same compound?
The value was 14 mmHg and 16 mmHg and 22 mmHg and 15 mmHg and 26 mmHg and 25 mmHg.

And the “HR 6 h” value [2]?
Its value is 170 and 173 and 175 and 138 and 120 and 226 and 116 and 162.

What about the “MAP 6 h” value [2] of the same compound?
The value was 82 mmHg and 60 mmHg and 94 mmHg and 91 mmHg and 66 mmHg and 55 mmHg.

What about the “MPAP 6 h” value [2] of the same compound?
Its value is 35 mmHg and 44 mmHg and 42 mmHg and 24 mmHg and 49 mmHg and 41 mmHg and 43 mmHg.

And the “PCWP 6 h” value [2]?
The value was 19 mmHg and 17 mmHg and 18 mmHg and 21 mmHg.

What about the “PaCO2 6 h” value [2] of the same compound?
The value was 5.1 kPa and 5.9 kPa and 6.2 kPa and 5.3 kPa and 5.5 kPa and 4.4 kPa and 6.3 kPa and 8 kPa and 9.4 kPa.

And the “PaO2 6 h” value [2]?
Its value is 19.6 kPa and 12.3 kPa and 11.8 kPa and 18.6 kPa and 18.5 kPa and 14.7 kPa and 8.7 kPa and 9.4 kPa and 6.8 kPa and 7.9 kPa.

And the “SBP 6 h” value [2]?
Its value is 104 mmHg and 106 mmHg and 119 mmHg and 88 mmHg and 110 mmHg and 100 mmHg and 95 mmHg.

And the “SPAP 6 h” value [2]?
Its value is 42 mmHg and 47 mmHg and 48 mmHg and 36 mmHg and 57 mmHg and 44 mmHg and 52 mmHg and 53 mmHg.

And the “Ven. sat 6 h” value [2]?
Its value is 57 and 59 and 45 and 73 and 68 and 44 and 46 and 7 and 10.

And the “MPAP (vid max SPAP)” value (individual animals, at max SPAP, listed as sEH-i 950)?
The value was 60 mmHg and 52 mmHg and 62 mmHg and 57 mmHg and 84 mmHg and 66 mmHg and 47 mmHg.

And the CO end [3]?
The CO end was 3.9 L/min and 2.8 L/min and 3.6 L/min and 5.2 L/min and 0 L/min and 1.4 L/min.

What about the CVP end [3] of the same compound?
The CVP end was 17 mmHg and 15 mmHg and 13 mmHg and 20 mmHg.

What about the HR end [3] of the same compound?
The HR end was 163 and 147 and 150 and 130 and 165 and 160 (0) and 135.

What about the MAP end [3] of the same compound?
The MAP end was 55 mmHg and 56 mmHg and 105 mmHg and 64 mmHg and 67 mmHg and 42 mmHg and 43 mmHg.

What about the MPAP end [3] of the same compound?
Its MPAP end is 30 mmHg and 50 mmHg and 33 mmHg and 24 mmHg and 40 mmHg and 43 mmHg and 48 mmHg.

And the PCWP end [3]?
Its PCWP end is 17 mmHg and 22 mmHg and 16 mmHg and 15 mmHg and 25 mmHg.

What about the PaCO2 end [3] of the same compound?
The PaCO2 end was 5.3 kPa and 6.1 kPa and 4.8 kPa and 4.4 kPa and 7.3 kPa and 6.4 kPa.

What about the PaO2 end [3] of the same compound?
The PaO2 end was 19.9 kPa and 13.4 kPa and 12 kPa and 19.5 kPa and 12.2 kPa and 4.4 kPa and 8.7 kPa.

What about the SBP end [3] of the same compound?
The SBP end was 102 mmHg and 103 mmHg and 116 mmHg and 97 mmHg and 92 mmHg and 66 mmHg and 70 mmHg.

What about the SPAP end [3] of the same compound?
The SPAP end was 38 mmHg and 57 mmHg and 43 mmHg and 29 mmHg and 47 mmHg and 49 mmHg and 54 mmHg.

What about the Ven. sat end [3] of the same compound?
The Ven. sat end was 69 and 54 and 58 and 56 and 70 and 19.

And the SPAP max (individual animals, maximum, listed as sEH-i 950)?
The SPAP max was 73 mmHg and 71 mmHg and 91 mmHg and 70 mmHg and 72 mmHg and 84 mmHg and 80 mmHg and 75 mmHg.

What about the Bilirubin [4] of the same compound?
The Bilirubin was 11.1 (8.6–18.8) μmol/L.

What about the CVP [4] of the same compound?
The CVP was 16 (15–17) mmHg.

And the Compliance [4]?
The Compliance was 7.9 (7.3–9.7) ml/cmH2O.

What about the Creatinine [4] of the same compound?
The Creatinine was 133 (102–152) μmol/L.

And the Hemoglobin [4]?
The Hemoglobin was 116 (107–128) g/L.

What about the MAP [4] of the same compound?
The MAP was 66 (55–97) mmHg.

What about the MPAP [4] of the same compound?
Its MPAP is 46 (35–50) mmHg.

And the P/F [4]?
Its P/F is 22 (11–42) kPa.

And the PCWP [4]?
Its PCWP is 18 (16–21) mmHg.

And the PIP [4]?
The PIP was 33 (29–37) cmH20.

What about the PVR [4] of the same compound?
The PVR was 643 (390–1057) dynes*sec/cm^5.

And the PaCO2 [4]?
Its PaCO2 is 5.8 (4.9–7.1) kPa.

And the SVR [4]?
The SVR was 1314 (1089–2375) dynes*sec/cm^5.

And the SvO2 [4]?
The SvO2 was 55 (25–66) %.

And the Temperature [4]?
Its Temperature is 38.5 (38.0–40.1) °C.

What about the pH [4] of the same compound?
Its pH is 7.16 (7.07–7.26).

And the “Mortalitet: Tidpunkt” value (time of death or termination, individual animals, listed as sEH-i 950)?
The value was 6 h and 9 h and 8 h.
